The target in this assay is T1, C5AR1 (Homo sapiens, UniProt P21730).
T1 construct: host or cells: CHO-K1
T1 sequence (P21730 1-350): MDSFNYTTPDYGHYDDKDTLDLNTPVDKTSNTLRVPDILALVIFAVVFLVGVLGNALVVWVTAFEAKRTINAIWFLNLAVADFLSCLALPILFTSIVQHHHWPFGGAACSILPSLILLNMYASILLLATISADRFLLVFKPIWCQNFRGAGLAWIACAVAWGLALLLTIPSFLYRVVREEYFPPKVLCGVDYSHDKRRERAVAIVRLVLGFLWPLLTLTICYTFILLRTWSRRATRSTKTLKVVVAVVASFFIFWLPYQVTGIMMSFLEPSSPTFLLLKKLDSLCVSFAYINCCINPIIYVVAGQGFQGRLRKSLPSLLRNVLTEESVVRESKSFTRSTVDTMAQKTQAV
Kind of assay: hC5a DISCO IC50 assay (PathHunter beta-arrestin, antagonist mode). The settings on record: CHO-K1 C5AR1 beta-arrestin cell line; antagonist vs 1-10 nM C5a agonist; geometric mean values; read-out: C5aR IC50. The assay is classed as cell-based. On the procedure:
II. Biological Assays In Vitro Assay hC5a DISCO IC50 Assay
5 μl Antagonist at 6-fold end concentration or DMSO control is added to assay medium and subsequently 5 μl 1-10 nM C5a agonist at 6 fold end concentration. Cells are centrifuged for 1 min at 1000 rpm and incubated for 1.5 hour in at 37° C. Plates are equilibrated at room temperature for several minutes before adding 12 μl/well Detection Reagent (PathHunter Detection Kit, DiscoverX, Cat #93-0001). Plates are centrifuged for 1 min at 1000 rpm and incubated for 45 minutes at RT before being measured on a Fluostar Optima, BMG Labtech. IC50 values are calculated from a serial dilution range of antagonist using inhouse software and given in nmol/l.
The calculated IC50 values may fluctuate depending on the daily cellular assay performance. Fluctuations of this kind are known to those skilled in the art. Average IC50 values from several measurements are given as geometric mean values.

Here are results for 25 molecules from US11739070B2, “C5A receptor modulators” (IDORSIA PHARMACEUTICALS LTD, priority 2018, dated 2023).

Turning to `COc1cccc2c1n(Cc1nccnc1OC(C)C)c(=O)n2[C@@H]1CCN(c2c(C)cccc2F)C1` [Example 177, 1-[(R)-1-(2-Fluoro-6-methyl-phenyl)-pyrrolidin-3-yl]-3-(3-isopropoxy-pyrazin-2-ylmethyl)-4-methoxy-1,3-dihydro-benzoimidazol-2-one], the IC50 worked out at 24 nM.

Consider `COc1ccccc1Cn1c(=O)n([C@@H]2CCN(c3c(C)cccc3F)C2)c2ccnc(OC)c21` [Example 78, 1-[(R)-1-(2-Fluoro-6-methyl-phenyl)-pyrrolidin-3-yl]-4-methoxy-3-(2-methoxy-benzyl)-1,3-dihydro-imidazo[4,5-c]pyridin-2-one], for which the IC50 amounted to 121 nM.

Take `COc1cccc2c1n(Cc1ccccc1C(F)(F)F)c(=O)n2C1CCN(Cc2ccc(Cl)cc2Cl)CC1` [Example 5, 1-[1-(2,4-Dichloro-benzyl)-piperidin-4-yl]-4-methoxy-3-(2-trifluoromethyl-benzyl)-1,3-dihydro-benzoimidazol-2-one]: the concentration for half-maximal inhibition (IC50) amounted to 284 nM.

Take `COC1CN(c2nccc3c2n(Cc2ccccc2C(F)(F)F)c(=O)n3[C@@H]2CCN(c3c(C)cccc3F)C2)C1` [Example 205, 1-[(R)-1-(2-Fluoro-6-methyl-phenyl)-pyrrolidin-3-yl]-4-(3-methoxy-azetidin-1-yl)-3-(2-trifluoromethyl-benzyl)-1,3-dihydro-imidazo[4,5-c]pyridin-2-one]: the IC50 came to 45 nM.

For `COc1ccnc2c1n(Cc1ccccc1C(F)(F)F)c(=O)n2[C@@H]1CCN(C(=O)OC(C)(C)C)C1` [Example 43, (R)-3-[7-Methoxy-2-oxo-1-(2-trifluoromethyl-benzyl)-1,2-dihydro-imidazo[4,5-b]pyridin-3-yl]-pyrrolidine-1-carboxylic acid tert-butyl ester], the IC50 was 393 nM.

Regarding `COc1cccc2c1n(Cc1ccccc1C(F)(F)F)c(=O)n2[C@@H]1CCN(C(=O)OC2(C(F)(F)F)COC2)C1` [Example 86, (R)-3-[4-Methoxy-2-oxo-3-(2-trifluoromethyl-benzyl)-2,3-dihydro-benzoimidazol-1-yl]-pyrrolidine-1-carboxylic acid 3-trifluoromethyl-oxetan-3-yl ester], the IC50 amounted to 229 nM.

For `COc1cccc2c1n(Cc1nccnc1C(C)C)c(=O)n2C1CCN(c2c(C)cccc2F)CC1` [Example 187, 1-[1-(2-Fluoro-6-methyl-phenyl)-piperidin-4-yl]-3-(3-isopropyl-pyrazin-2-ylmethyl)-4-methoxy-1,3-dihydro-benzoimidazol-2-one], the IC50 is 26 nM.

On to `COc1cccc2c1n(Cc1ccccc1C(F)(F)F)c(=O)n2[C@H]1CN(c2c(C)cccc2F)C[C@H]1C` (relative stereo) [Example 200, 1-[(3R*,4R*)-1-(2-Fluoro-6-methyl-phenyl)-4-methyl-pyrrolidin-3-yl]-4-methoxy-3-(2-trifluoromethyl-benzyl)-1,3-dihydro-benzoimidazol-2-one], for which the IC50 is 19 nM.

With `COc1cccc2c1n(Cc1ccccc1C(F)(F)F)c(=O)n2[C@@H]1CCN(c2c(F)cccc2F)C1` [Example 7, 1-[(R)-1-(2,6-Difluoro-phenyl)-pyrrolidin-3-yl]-4-methoxy-3-(2-trifluoromethyl-benzyl)-1,3-dihydro-benzoimidazol-2-one], the IC50 amounted to 11 nM.

For the molecule `COc1cccc2c1n(Cc1ccccc1C(F)(F)F)c(=O)n2C1CCN(c2ccccc2OC2COC2)CC1` [Example 242, 4-Methoxy-1-{1-[2-(oxetan-3-yloxy)-phenyl]-piperidin-4-yl}-3-(2-trifluoromethyl-benzyl)-1,3-dihydro-benzoimidazol-2-one], the IC50 was 74 nM.

As for `COc1nccnc1Cn1c(=O)n(C2CCN(c3c(C)cccc3F)CC2)c2cccc(OC)c21` [Example 170, 1-[1-(2-Fluoro-6-methyl-phenyl)-piperidin-4-yl]-4-methoxy-3-(3-methoxy-pyrazin-2-ylmethyl)-1,3-dihydro-benzoimidazol-2-one], the IC50 was determined as 45 nM.

Turning to `COc1cccc2c1n(Cc1cncnc1C(F)(F)F)c(=O)n2C1CCN(c2c(F)cccc2C#N)CC1` [Example 117, 3-Fluoro-2-{4-[4-methoxy-2-oxo-3-(4-trifluoromethyl-pyrimidin-5-ylmethyl)-2,3-dihydro-benzoimidazol-1-yl]-piperidin-1-yl}-benzonitrile], the IC50 came out at 308 nM.

As for `COc1nccc2c1n(Cc1ccccc1C(F)(F)F)c(=O)n2[C@@H]1CCN(C(=O)OC(C)(C)C)C1` [Example 39, (R)-3-[4-Methoxy-2-oxo-3-(2-trifluoromethyl-benzyl)-2,3-dihydro-imidazo[4,5-c]pyridin-1-yl]-pyrrolidine-1-carboxylic acid tert-butyl ester], the IC50 was 2430 nM.

As to `COc1cccc2c1n(Cc1ccccc1C(F)(F)F)c(=O)n2[C@@H]1CCN(c2c(F)cccc2C(C)=O)C1` [Example 90, 1-[(R)-1-(2-Acetyl-6-fluoro-phenyl)-pyrrolidin-3-yl]-4-methoxy-3-(2-trifluoromethyl-benzyl)-1,3-dihydro-benzoimidazol-2-one], the IC50 came to 38 nM.

On to `Cc1cccc(F)c1N1CC[C@@H](n2c(=O)n(Cc3ccccc3C(F)(F)F)c3c(OC4CCN(C(=O)OC(C)(C)C)CC4)nccc32)C1` [Example 122, 4-[1-[(R)-1-(2-Fluoro-6-methyl-phenyl)-pyrrolidin-3-yl]-2-oxo-3-(2-trifluoromethyl-benzyl)-2,3-dihydro-1H-imidazo[4,5-c]pyridin-4-yloxy]-piperidine-1-carboxylic acid tert-butyl ester], for which the IC50 amounted to 509 nM.

On to `COc1cccc2c1n(Cc1ccccc1C(F)(F)F)c(=O)n2C1CCCN(C(=O)OC(C)(C)C)CC1` (stereo not shown) [Example 179, 4-[4-Methoxy-2-oxo-3-(2-trifluoromethyl-benzyl)-2,3-dihydro-benzoimidazol-1-yl]-azepane-1-carboxylic acid tert-butyl ester], for which the IC50 came out at 122 nM.

Regarding `COc1cccc2c1n(Cc1ccccc1C(F)(F)F)c(=O)n2[C@@H]1CCN(c2c(F)cccc2CN2CCC(OC)C2)C1` (stereo partly drawn) [Example 138, 1-{(R)-1-[2-Fluoro-6-(3-methoxy-pyrrolidin-1-ylmethyl)-phenyl]-pyrrolidin-3-yl}-4-methoxy-3-(2-trifluoromethyl-benzyl)-1,3-dihydro-benzoimidazol-2-one], the IC50 worked out at 156 nM.

Take `COc1nccc2c1n(Cc1ccccc1C(F)(F)F)c(=O)n2[C@@H]1CCN(c2c(C)cccc2F)C1` [Example 50, 1-[(R)-1-(2-Fluoro-6-methyl-phenyl)-pyrrolidin-3-yl]-4-methoxy-3-(2-trifluoromethyl-benzyl)-1,3-dihydro-imidazo[4,5-c]pyridin-2-one]: the IC50 was 42 nM.

In the case of `COc1cccc2c1n(Cc1ccccc1C(F)(F)F)c(=O)n2[C@@H]1CCN(c2c(F)cccc2C=O)C1` [Example 83, 3-Fluoro-2-{(R)-3-[4-methoxy-2-oxo-3-(2-trifluoromethyl-benzyl)-2,3-dihydro-benzoimidazol-1-yl]-pyrrolidin-1-yl}-benzaldehyde], the IC50 stood at 23 nM.

Take `COc1cccc2c1n(Cc1sc(C)nc1C(F)(F)F)c(=O)n2[C@@H]1CCN(c2c(C)cccc2F)C1` [Example 221, 1-[(R)-1-(2-Fluoro-6-methyl-phenyl)-pyrrolidin-3-yl]-4-methoxy-3-(2-methyl-4-trifluoromethyl-thiazol-5-ylmethyl)-1,3-dihydro-benzoimidazol-2-one]: the IC50 is 175 nM.

As to `COc1cccc2c1n(Cc1ccccc1OC1COC1)c(=O)n2C1CCN(c2c(C)cccc2F)CC1` [Example 225, 1-[1-(2-Fluoro-6-methyl-phenyl)-piperidin-4-yl]-4-methoxy-3-[2-(oxetan-3-yloxy)-benzyl]-1,3-dihydro-benzoimidazol-2-one], the IC50 came to 40 nM.

`Cc1cccc(C)c1N1CC[C@@H](n2c(=O)n(Cc3ccccc3C(F)(F)F)c3c(OCCO)nccc32)C1` [Example 119, 1-[(R)-1-(2,6-Dimethyl-phenyl)-pyrrolidin-3-yl]-4-(2-hydroxy-ethoxy)-3-(2-trifluoromethyl-benzyl)-1,3-dihydro-imidazo[4,5-c]pyridin-2-one]: the IC50 came out at 12 nM.

With `Cc1cccc(C)c1N1CC[C@@H](n2c(=O)n(Cc3ccccc3C(F)(F)F)c3c(=O)[nH]ccc32)C1` [Example 93, 1-[(R)-1-(2,6-Dimethyl-phenyl)-pyrrolidin-3-yl]-3-(2-trifluoromethyl-benzyl)-3,5-dihydro-1H-imidazo[4,5-c]pyridine-2,4-dione], the IC50 was 149 nM.

Turning to `COc1ncnc(C)c1N1CCC(n2c(=O)n(Cc3ccccc3C(F)(F)F)c3c(OC)cccc32)CC1` [Example 249, 4-Methoxy-1-[1-(4-methoxy-6-methyl-pyrimidin-5-yl)-piperidin-4-yl]-3-(2-trifluoromethyl-benzyl)-1,3-dihydro-benzoimidazol-2-one], the IC50 was 273 nM.

Turning to `COc1cccc2c1n(Cc1ncccc1C(F)(F)F)c(=O)n2C1CCN(c2c(C)cccc2F)CC1` [Example 216, 1-[1-(2-Fluoro-6-methyl-phenyl)-piperidin-4-yl]-4-methoxy-3-(3-trifluoromethyl-pyridin-2-ylmethyl)-1,3-dihydro-benzoimidazol-2-one], the IC50 was determined as 12 nM.
